# Molecular target: T1, CDK9 (Homo sapiens, UniProt P50750)
# T1 construct: NCIH211 cells with endogenously tagged N-terminal CDK9-HiBit; endogenous in cells; host or cells: NCIH211 cells (endogenous CDK9 locus tagged with HiBit)
# Test: CDK9 degradation by HiBit assay, NCIH211 cells
# Assay type: cell-based
# Settings: NCIH211 cells with endogenously tagged N-terminal CDK9-HiBit, 24 hours incubation; read-out: HiBit-NCIH211.2 DC50
# Description: Exemplary compounds of the invention were tested for degradation of CDK9. The compounds were tested in 10-dose DC50 duplicate mode with a 3-fold serial dilution starting at 10 μM by HiBit assay (Promega, Inc) as a direct measurement of CDK9 presence, with incubation time of 24 hours using either NCIH211 cells with endogenously tagged N-terminal CDK9-HiBit or NCIH1048 cells with endogenously tagged N-terminal CDK9-HiBit. A control compound (THAL-SNS-032, CAS 2139287-33-3) was tested in 10-dose DC50 mode with 3-fold serial dilution starting at 10 μM. Data was normalized to positive (medium only) and negative (cells with no treatment) controls and curve fits were analyzed with CDK9 as % response vs. log [compound concentration] using a 4-parameter logistic model by GraphPad software. For Table 2: A is <100, B is <1000 C is <10,000, D is >10,000 and ND is Not Determined.
# T1 sequence (P50750 whole entry): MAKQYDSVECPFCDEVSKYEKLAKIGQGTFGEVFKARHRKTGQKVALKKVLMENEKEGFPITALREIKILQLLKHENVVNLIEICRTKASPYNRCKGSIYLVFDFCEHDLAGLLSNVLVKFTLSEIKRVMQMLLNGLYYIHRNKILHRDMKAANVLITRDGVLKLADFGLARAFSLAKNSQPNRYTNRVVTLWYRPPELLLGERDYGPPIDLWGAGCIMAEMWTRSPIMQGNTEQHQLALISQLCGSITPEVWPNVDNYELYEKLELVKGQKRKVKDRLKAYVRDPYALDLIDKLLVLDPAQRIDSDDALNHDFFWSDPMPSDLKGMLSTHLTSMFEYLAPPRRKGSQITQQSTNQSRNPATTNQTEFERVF
# T1 sequence (O60563 whole entry partner): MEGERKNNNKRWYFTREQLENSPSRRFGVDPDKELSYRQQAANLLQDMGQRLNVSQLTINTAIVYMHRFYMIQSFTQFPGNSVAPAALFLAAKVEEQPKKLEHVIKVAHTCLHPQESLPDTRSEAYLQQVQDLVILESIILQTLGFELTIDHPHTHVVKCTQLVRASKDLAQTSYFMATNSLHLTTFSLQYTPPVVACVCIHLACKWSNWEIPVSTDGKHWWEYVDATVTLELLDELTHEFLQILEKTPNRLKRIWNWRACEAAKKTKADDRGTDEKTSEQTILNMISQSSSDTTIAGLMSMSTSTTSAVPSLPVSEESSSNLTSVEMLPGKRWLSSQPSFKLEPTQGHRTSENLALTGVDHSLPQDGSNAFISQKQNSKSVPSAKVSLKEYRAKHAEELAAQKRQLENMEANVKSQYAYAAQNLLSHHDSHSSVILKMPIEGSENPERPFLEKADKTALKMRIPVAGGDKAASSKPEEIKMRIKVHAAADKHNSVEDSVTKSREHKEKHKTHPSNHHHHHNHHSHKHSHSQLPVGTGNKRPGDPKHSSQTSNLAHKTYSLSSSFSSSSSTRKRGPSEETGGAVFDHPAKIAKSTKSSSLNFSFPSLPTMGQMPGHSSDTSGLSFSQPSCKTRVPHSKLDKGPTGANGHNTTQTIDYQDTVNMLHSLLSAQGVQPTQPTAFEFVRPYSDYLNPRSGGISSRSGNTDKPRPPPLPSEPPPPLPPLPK
row,SMILES,DC50
1,CCC(CC)c1cc(N[C@H]2CC[C@H](NCC(=O)NCCCn3cc(CCOCCNc4cccc5c4C(=O)N(C4CCC(=O)NC4=O)C5=O)nn3)C2)n2nccc2n1 (stereo partly shown) [Compound 20.0],> 10 µM
2,CCC(CC)c1cc(N[C@H]2CC[C@H](NCCOCCOCCn3cc(CNc4cccc5c4C(=O)N(C4CCC(=O)NC4=O)C5=O)nn3)C2)n2ncc(Cl)c2n1 (stereo partly shown) [Compound 15.0],< 10 µM
3,"CCC(CC)c1cc(N[C@H]2CC[C@H](NCCN3CCN(CCNc4cccc5c4C(=O)N(C4CCC(=O)NC4=O)C5=O)CC3)C2)n2nccc2n1 (stereo partly drawn) [Compound 19.0, 2-(2,6-dioxo-3-piperidyl)-4-[2-[4-[2-[[(1S,3S)-3-[[5-(1-ethylpropyl)pyrazolo[1,5-a]pyrimidin-7-yl]amino]cyclopentyl]amino]ethyl]piperazin-1-yl]ethylamino]isoindoline-1,3-dione]",< 10 µM
4,CCC(CC)c1cc(N[C@H]2CC[C@H](NCC(=O)NCc3cn(CCOCCOCCOCCOc4cc(-c5scnc5C)ccc4CNC(=O)[C@@H]4C[C@@H](O)CN4C(=O)[C@H](C(C)C)N4Cc5ccccc5C4=O)nn3)C2)n2nccc2n1 [Compound 31.0],> 10 µM
5,CCC(CC)c1cc(N[C@H]2CC[C@H](NCc3cn(CCOCCOCCOCC(=O)N[C@H](C(=O)N4C[C@H](O)C[C@H]4C(=O)NCc4ccc(-c5scnc5C)cc4)C(C)(C)C)nn3)C2)n2nccc2n1 [Compound 35.0],> 10 µM
6,"CCC(CC)c1cc(N[C@H]2CC[C@H](NCc3cn(CCOCCOCCNc4cccc5c4C(=O)N(C4CCC(=O)NC4=O)C5=O)nn3)C2)n2nccc2n1 (stereo partly drawn) [Compound 9.0, 2-(2,6-dioxo-3-piperidyl)-4-[2-[2-[2-[4-[[[(1S,3S)-3-[[5-(1-ethylpropyl)pyrazolo[1,5-a]pyrimidin-7-yl]amino]cyclopentyl]amino]methyl]triazol-1-yl]ethoxy]ethoxy]ethylamino]isoindoline-1,3-dione]",< 10 µM
7,"CCC(CC)c1cc(N[C@H]2CC[C@H](NCc3cn(CCOCCOCCOCCNc4cccc5c4C(=O)N(C4CCC(=O)NC4=O)C5=O)nn3)C2)n2nccc2n1 (stereo partly drawn) [Compound 10.0, 2-(2,6-dioxo-3-piperidyl)-4-[2-[2-[2-[2-[4-[[[(1S,3S)-3-[[5-(1-ethylpropyl)pyrazolo[1,5-a]pyrimidin-7-yl]amino]cyclopentyl]amino]methyl]triazol-1-yl]ethoxy]ethoxy]ethoxy]ethylamino]isoindoline-1,3-dione]",< 10 µM
8,"CCC(CC)c1cc(N[C@H]2CC[C@H](NCCOCCOCCOCCn3cc(CNc4cccc5c4C(=O)N(C4CCC(=O)NC4=O)C5=O)nn3)C2)n2nccc2n1 (stereo partly drawn) [Compound 12.0, 2-(2,6-dioxo-3-piperidyl)-4-[[1-[2-[2-[2-[2-[[(1S,3S)-3-[[5-(1-ethylpropyl)pyrazolo[1,5-a]pyrimidin-7-yl]amino]cyclopentyl]amino]ethoxy]ethoxy]ethoxy]ethyl]triazol-4-yl]methylamino]isoindoline-1,3-dione]",> 10 µM
9,CCC(CC)c1cc(N[C@H]2CC[C@H](NCC(=O)NCCCc3cn(CCOCCOCCOCCOCC(=O)N[C@H](C(=O)N4C[C@H](O)C[C@H]4C(=O)NCc4ccc(-c5scnc5C)cc4)C(C)(C)C)nn3)C2)n2ncc(Cl)c2n1 [Compound 41.0],> 10 µM
10,"CCC(CC)c1cc(N[C@H]2CC[C@H](NCCOCCOCCOCCNc3cccc4c3C(=O)N(C3CCC(=O)NC3=O)C4=O)C2)n2ncc(Cl)c2n1 (stereo partly drawn) [Compound 11.0, 2-(2,6-dioxo-3-piperidyl)-4-[2-[2-[2-[2-[[(1S,3S)-3-[[3-chloro-5-(1-ethylpropyl)pyrazolo[1,5-a]pyrimidin-7-yl]amino]cyclopentyl]amino]ethoxy]ethoxy]ethoxy]ethylamino]isoindoline-1,3-dione]",< 10 µM
11,CCC(CC)c1cc(N[C@H]2CC[C@H](NCc3cn(CCOCCOCCOc4cc(-c5scnc5C)ccc4CNC(=O)[C@@H]4C[C@@H](O)CN4C(=O)[C@H](C(C)C)N4Cc5ccccc5C4=O)nn3)C2)n2nccc2n1 [Compound 38.0],> 10 µM
12,CCC(CC)c1cc(N[C@H]2CC[C@H](NCc3cn(CCOCCOCCOCCOc4cc(-c5scnc5C)ccc4CNC(=O)[C@@H]4C[C@@H](O)CN4C(=O)[C@H](C(C)C)N4Cc5ccccc5C4=O)nn3)C2)n2nccc2n1 [Compound 39.0],> 10 µM
13,CCC(CC)c1cc(N[C@H]2CC[C@H](NCC(=O)NCc3cn(CCOCCOc4cc(-c5scnc5C)ccc4CNC(=O)[C@@H]4C[C@@H](O)CN4C(=O)[C@H](C(C)C)N4Cc5ccccc5C4=O)nn3)C2)n2nccc2n1 [Compound 29.0],> 10 µM
14,CCC(CC)c1cc(N[C@H]2CC[C@H](NCc3cn(CCOCC(=O)N[C@H](C(=O)N4C[C@H](O)C[C@H]4C(=O)NCc4ccc(-c5scnc5C)cc4)C(C)(C)C)nn3)C2)n2nccc2n1 [Compound 33.0],> 10 µM
15,"CCC(CC)c1cc(N[C@H]2CC[C@H](NCCOCCOCCOCCOCCNc3cccc4c3C(=O)N(C3CCC(=O)NC3=O)C4=O)C2)n2ncc(Cl)c2n1 (stereo partly drawn) [Compound 13.0, 4-[2-[2-[2-[2-[2-[[(1S,3S)-3-[[3-chloro-5-(1-ethylpropyl)pyrazolo[1,5-a]pyrimidin-7-yl]amino]cyclopentyl]amino]ethoxy]ethoxy]ethoxy]ethoxy]ethylamino]-2-(2,6-dioxo-3-piperidyl)isoindoline-1,3-dione]",< 10 µM
16,CCC(CC)c1cc(N[C@H]2CC[C@H](NCc3cn(CCOCCOc4cc(-c5scnc5C)ccc4CNC(=O)[C@@H]4C[C@@H](O)CN4C(=O)[C@H](C(C)C)N4Cc5ccccc5C4=O)nn3)C2)n2nccc2n1 [Compound 37.0],> 10 µM
17,CCC(CC)c1cc(N[C@H]2CC[C@H](NCC(=O)NCCCc3cn(CCOCCOCCOCC(=O)N[C@H](C(=O)N4C[C@H](O)C[C@H]4C(=O)NCc4ccc(-c5scnc5C)cc4)C(C)(C)C)nn3)C2)n2ncc(Cl)c2n1 [Compound 42.0],> 10 µM
18,CCC(CC)c1cc(N[C@H]2CC[C@H](NCC(=O)NCc3cn(CCOCC(=O)N[C@H](C(=O)N4C[C@H](O)C[C@H]4C(=O)NCc4ccc(-c5scnc5C)cc4)C(C)(C)C)nn3)C2)n2nccc2n1 [Compound 25.0],> 10 µM
19,"CCC(CC)c1cc(N[C@H]2CC[C@H](NCCOCCOCCOCCOCCNc3cccc4c3C(=O)N(C3CCC(=O)NC3=O)C4=O)C2)n2nccc2n1 (stereo partly drawn) [Compound 8.0, 2-(2,6-dioxo-3-piperidyl)-4-[2-[2-[2-[2-[2-[[(1S,3S)-3-[[5-(1-ethylpropyl)pyrazolo[1,5-a]pyrimidin-7-yl]amino]cyclopentyl]amino]ethoxy]ethoxy]ethoxy]ethoxy]ethylamino]isoindoline-1,3-dione]",> 10 µM
20,"CCC(CC)c1cc(N[C@H]2CC[C@H](NC(=O)COCCOCCNC(=O)COc3cccc4c3C(=O)N(C3CCC(=O)NC3=O)C4=O)C2)n2ncc(Cl)c2n1 (stereo partly drawn) [Compound 4.0, N-[(1S,3S)-3-[[3-chloro-5-(1-ethylpropyl)pyrazolo[1,5-a]pyrimi-din-7-yl]amino]cyclopentyl]-2-[2-[2-[[2-[2-(2,6-dioxo-3-piperidyl)-1,3-dioxo-isoindolin-4-yl]oxyacetyl]amino]ethoxy]ethoxy]acetamide]",> 10 µM
21,"CCC(CC)c1cc(N[C@H]2CC[C@H](NCCOCCOCCOCCNc3cccc4c3C(=O)N(C3CCC(=O)NC3=O)C4=O)C2)n2nccc2n1 (stereo partly drawn) [Compound 7.0, 2-(2,6-dioxo-3-piperidyl)-4-[2-[2-[2-[2-[[(1S,3S)-3-[[5-(1-ethylpropyl)pyrazolo[1,5-a]pyrimidin-7-yl]amino]cyclopentyl]amino]ethoxy]ethoxy]ethoxy]ethylamino]isoindoline-1,3-dione]",> 10 µM
22,"CCC(CC)c1cc(N[C@H]2CC[C@H](NCCN3CCN(CCOCC(=O)N[C@H](C(=O)N4C[C@H](O)C[C@H]4C(=O)NCc4ccc(-c5scnc5C)cc4)C(C)(C)C)CC3)C2)n2nccc2n1 [Compound 18.0, (2S,4R)-1-[(2S)-2-[[2-[2-[4-[2-[[(1S,3S)-3-[[5-(1-ethylpropyl)pyrazolo[1,5-a]pyrimidin-7-yl]amino]cyclopentyl]amino]ethyl]piperazin-1-yl]ethoxy]acetyl]amino]-3,3-dimethyl-butanoyl]-4-hydroxy-N-[[4-(4-methylthiazol-5-yl)phenyl]methyl]pyrrolidine-2-carboxamide]",> 10 µM
23,"CCC(CC)c1cc(N[C@H]2CC[C@H](NCCOCCOCCn3cc(COCCOCC(=O)N[C@H](C(=O)N4C[C@H](O)C[C@H]4C(=O)NCc4ccc(-c5scnc5C)cc4)C(C)(C)C)nn3)C2)n2nccc2n1 [Compound 14.0, (2S,4R)-4-hydroxy-N-[[4-(4-methylthiazol-5-yl)phenyl]methyl]-1-[(2S)-3,3-dimethyl-2-[[2-[2-[[1-[2-[2-[2-[[(1S,3S)-3-[[5-(1-ethylpropyl)pyrazolo[1,5-a]pyrimidin-7-yl]amino]cyclopentyl]amino]ethoxy]ethoxy]ethyl]triazol-4-yl]methoxy]ethoxy]acetyl]amino]butanoyl]pyrrolidine-2-carboxamide]",> 10 µM
24,CCC(CC)c1cc(N[C@H]2CC[C@H](NCC(=O)NCCCc3cn(CCOCCNc4cccc5c4C(=O)N(C4CCC(=O)NC4=O)C5=O)nn3)C2)n2ncc(Cl)c2n1 (stereo partly shown) [Compound 23.0],< 10 µM
25,CCC(CC)c1cc(N[C@H]2CC[C@H](NCC(=O)NCc3cn(CCOCCOCCOCCOCC(=O)N[C@H](C(=O)N4C[C@H](O)C[C@H]4C(=O)NCc4ccc(-c5scnc5C)cc4)C(C)(C)C)nn3)C2)n2nccc2n1 [Compound 28.0],> 10 µM
